Experimental data reported in US20250129430A1, “HIGH ATP-AFFINITY PROTEIN AS THERAPEUTIC TARGET FOR INTRACTABLE CANCER MOLECULAR SUBTYPES AND INHIBITOR THEREOF” (VeraVerse Co., Ltd., priority 2021, published 2025).
Where a name gives a salt, the structure may show the parent alone.

Test system: AGS
Assay: Cell viability drug screen, 12-point dose-response AUC
Assay type: cell-based, human
Details: AGS cells (non-SEM subtype); 72 hours
Procedure: (§1) An FDA-approved small-molecule pharmacological compound (#L1300) and an anticancer compound for research (#L2000) were purchased from Selecckchem and a 10 mM solution was prepared in DMSO. A total of 1,345 compounds were tested the cell viability of the seven EMT gastric cancer cell lines.
(§2) Cells cultured for cell-based drug assay were inoculated into a 96-well white optical plate (Corning) at 5×10^3 cells per well. After 24 hours after inoculation, a 2.5 MJT (primary screen) or a half-log 12-serial diluent (secondary screen) of the pharmacological compound contained in DMSO is added to the cells with a robot using a BioMek FXp liquid processor (Beckman) to add to the cells at 50 mM. The final drug concentration in the 5 ns range and the DMSO specification control (0.5%) were calculated. The cells were then further incubated at 37° C. in a 5% CO2 incubator for 72 hours prior to measuring cell viability using the extra-GLO assay kit (Promega). The luminescent properties were measured after 15 min incubation at room temperature using a plate stacker equipped with a plate stacker. The normalized viability for the DMSO-based control was measured to generate a cell line-specific 12-point dose-response curve for each pharmacological compound, and then the area under the curve (AUC) was calculated using a trapezoidal method. […] The results of the repeated experiments were averaged to generate AUC values for each cell line for each compound.

Row | SMILES | Average Area Under the Viability Curve (AUC), AUC norm value
1 | CCCCC(CC)CNC(=N)NC(=N)NCCCCCCNC(=N)NC(=N)NCC(CC)CCCC (centres unmarked) [Alexidine HCl] | −0.444

Test system: Hs746T
Assay: as above
Assay type: cell-based, human
Details: Hs746T cells (SEM subtype); 72 hours
Procedure: as §1, §2

Row | SMILES | Average Area Under the Viability Curve (AUC), AUC norm value
2 | CCCCC(CC)CNC(=N)NC(=N)NCCCCCCNC(=N)NC(=N)NCC(CC)CCCC (centres unmarked) [Alexidine HCl] | −0.2597

Test system: KATO3
Assay: as above
Assay type: cell-based, human
Details: KATO3 cells; 72 hours
Procedure: as §1, §2

Row | SMILES | Average Area Under the Viability Curve (AUC), AUC norm value
3 | CCCCC(CC)CNC(=N)NC(=N)NCCCCCCNC(=N)NC(=N)NCC(CC)CCCC (centres unmarked) [Alexidine HCl] | 0.541

Test system: MKN1
Assay: as above
Assay type: cell-based, human
Details: MKN1 cells; 72 hours
Procedure: as §1, §2

Row | SMILES | Average Area Under the Viability Curve (AUC), AUC norm value
4 | CCCCC(CC)CNC(=N)NC(=N)NCCCCCCNC(=N)NC(=N)NCC(CC)CCCC (centres unmarked) [Alexidine HCl] | 0.8687

Test system: MKN28
Assay: as above
Assay type: cell-based, human
Details: MKN28 cells; 72 hours
Procedure: as §1, §2

Row | SMILES | Average Area Under the Viability Curve (AUC), AUC norm value
5 | CCCCC(CC)CNC(=N)NC(=N)NCCCCCCNC(=N)NC(=N)NCC(CC)CCCC (centres unmarked) [Alexidine HCl] | 0

Test system: MKN45
Assay: as above
Assay type: cell-based, human
Details: MKN45 cells (non-SEM subtype); 72 hours
Procedure: as §1, §2

Row | SMILES | Average Area Under the Viability Curve (AUC), AUC norm value
6 | CCCCC(CC)CNC(=N)NC(=N)NCCCCCCNC(=N)NC(=N)NCC(CC)CCCC (centres unmarked) [Alexidine HCl] | 0.04553

Test system: MKN74
Assay: as above
Assay type: cell-based, human
Details: MKN74 cells; 72 hours
Procedure: as §1, §2

Row | SMILES | Average Area Under the Viability Curve (AUC), AUC norm value
7 | CCCCC(CC)CNC(=N)NC(=N)NCCCCCCNC(=N)NC(=N)NCC(CC)CCCC (centres unmarked) [Alexidine HCl] | −0.3433

Test system: NCC19
Assay: as above
Assay type: cell-based, human
Details: NCC19 cells; 72 hours
Procedure: as §1, §2

Row | SMILES | Average Area Under the Viability Curve (AUC), AUC norm value
8 | CCCCC(CC)CNC(=N)NC(=N)NCCCCCCNC(=N)NC(=N)NCC(CC)CCCC (centres unmarked) [Alexidine HCl] | 1.132

Test system: NCC20
Assay: as above
Assay type: cell-based, human
Details: NCC20 cells; 72 hours
Procedure: as §1, §2

Row | SMILES | Average Area Under the Viability Curve (AUC), AUC norm value
9 | CCCCC(CC)CNC(=N)NC(=N)NCCCCCCNC(=N)NC(=N)NCC(CC)CCCC (centres unmarked) [Alexidine HCl] | 0.6963

Test system: NCC24
Assay: as above
Assay type: cell-based, human
Details: NCC24 cells; 72 hours
Procedure: as §1, §2

Row | SMILES | Average Area Under the Viability Curve (AUC), AUC norm value
10 | CCCCC(CC)CNC(=N)NC(=N)NCCCCCCNC(=N)NC(=N)NCC(CC)CCCC (centres unmarked) [Alexidine HCl] | −0.4745

Test system: NCC59
Assay: as above
Assay type: cell-based, human
Details: NCC59 cells; 72 hours
Procedure: as §1, §2

Row | SMILES | Average Area Under the Viability Curve (AUC), AUC norm value
11 | CCCCC(CC)CNC(=N)NC(=N)NCCCCCCNC(=N)NC(=N)NCC(CC)CCCC (centres unmarked) [Alexidine HCl] | 1.334

Test system: NCI_N87
Assay: as above
Assay type: cell-based, human
Details: NCI_N87 cells; 72 hours
Procedure: as §1, §2

Row | SMILES | Average Area Under the Viability Curve (AUC), AUC norm value
12 | CCCCC(CC)CNC(=N)NC(=N)NCCCCCCNC(=N)NC(=N)NCC(CC)CCCC (centres unmarked) [Alexidine HCl] | 2.531

Test system: OCUM1
Assay: as above
Assay type: cell-based, human
Details: OCUM1 cells; 72 hours
Procedure: as §1, §2

Row | SMILES | Average Area Under the Viability Curve (AUC), AUC norm value
13 | CCCCC(CC)CNC(=N)NC(=N)NCCCCCCNC(=N)NC(=N)NCC(CC)CCCC (centres unmarked) [Alexidine HCl] | −0.04134

Test system: SK4
Assay: as above
Assay type: cell-based, human
Details: SK4 cells (SEM subtype); 72 hours
Procedure: as §1, §2

Row | SMILES | Average Area Under the Viability Curve (AUC), AUC norm value
14 | CCCCC(CC)CNC(=N)NC(=N)NCCCCCCNC(=N)NC(=N)NCC(CC)CCCC (centres unmarked) [Alexidine HCl] | −0.9023

Test system: SNU16
Assay: as above
Assay type: cell-based, human
Details: SNU16 cells; 72 hours
Procedure: as §1, §2

Row | SMILES | Average Area Under the Viability Curve (AUC), AUC norm value
15 | CCCCC(CC)CNC(=N)NC(=N)NCCCCCCNC(=N)NC(=N)NCC(CC)CCCC (centres unmarked) [Alexidine HCl] | −1.849

Test system: SNU1750
Assay: as above
Assay type: cell-based, human
Details: SNU1750 cells (SEM subtype); 72 hours
Procedure: as §1, §2

Row | SMILES | Average Area Under the Viability Curve (AUC), AUC norm value
16 | CCCCC(CC)CNC(=N)NC(=N)NCCCCCCNC(=N)NC(=N)NCC(CC)CCCC (centres unmarked) [Alexidine HCl] | −0.6331

Test system: SNU1967
Assay: as above
Assay type: cell-based, human
Details: SNU1967 cells; 72 hours
Procedure: as §1, §2

Row | SMILES | Average Area Under the Viability Curve (AUC), AUC norm value
17 | CCCCC(CC)CNC(=N)NC(=N)NCCCCCCNC(=N)NC(=N)NCC(CC)CCCC (centres unmarked) [Alexidine HCl] | 0.1828

Test system: SNU1
Assay: as above
Assay type: cell-based, human
Details: SNU1 cells; 72 hours
Procedure: as §1, §2

Row | SMILES | Average Area Under the Viability Curve (AUC), AUC norm value
18 | CCCCC(CC)CNC(=N)NC(=N)NCCCCCCNC(=N)NC(=N)NCC(CC)CCCC (centres unmarked) [Alexidine HCl] | 0.7061

Test system: SNU216
Assay: as above
Assay type: cell-based, human
Details: SNU216 cells (non-SEM subtype); 72 hours
Procedure: as §1, §2

Row | SMILES | Average Area Under the Viability Curve (AUC), AUC norm value
19 | CCCCC(CC)CNC(=N)NC(=N)NCCCCCCNC(=N)NC(=N)NCC(CC)CCCC (centres unmarked) [Alexidine HCl] | 0.03777

Test system: SNU484
Assay: as above
Assay type: cell-based, human
Details: SNU484 cells (SEM subtype); 72 hours
Procedure: as §1, §2

Row | SMILES | Average Area Under the Viability Curve (AUC), AUC norm value
20 | CCCCC(CC)CNC(=N)NC(=N)NCCCCCCNC(=N)NC(=N)NCC(CC)CCCC (centres unmarked) [Alexidine HCl] | −1.212

Test system: SNU601
Assay: as above
Assay type: cell-based, human
Details: SNU601 cells; 72 hours
Procedure: as §1, §2

Row | SMILES | Average Area Under the Viability Curve (AUC), AUC norm value
21 | CCCCC(CC)CNC(=N)NC(=N)NCCCCCCNC(=N)NC(=N)NCC(CC)CCCC (centres unmarked) [Alexidine HCl] | 1.898

Test system: SNU620
Assay: as above
Assay type: cell-based, human
Details: SNU620 cells; 72 hours
Procedure: as §1, §2

Row | SMILES | Average Area Under the Viability Curve (AUC), AUC norm value
22 | CCCCC(CC)CNC(=N)NC(=N)NCCCCCCNC(=N)NC(=N)NCC(CC)CCCC (centres unmarked) [Alexidine HCl] | 0.0423

Test system: SNU638
Assay: as above
Assay type: cell-based, human
Details: SNU638 cells; 72 hours
Procedure: as §1, §2

Row | SMILES | Average Area Under the Viability Curve (AUC), AUC norm value
23 | CCCCC(CC)CNC(=N)NC(=N)NCCCCCCNC(=N)NC(=N)NCC(CC)CCCC (centres unmarked) [Alexidine HCl] | −0.612

Test system: SNU668
Assay: as above
Assay type: cell-based, human
Details: SNU668 cells (SEM subtype); 72 hours
Procedure: as §1, §2

Row | SMILES | Average Area Under the Viability Curve (AUC), AUC norm value
24 | CCCCC(CC)CNC(=N)NC(=N)NCCCCCCNC(=N)NC(=N)NCC(CC)CCCC (centres unmarked) [Alexidine HCl] | −0.1375

Test system: SNU719
Assay: as above
Assay type: cell-based, human
Details: SNU719 cells; 72 hours
Procedure: as §1, §2

Row | SMILES | Average Area Under the Viability Curve (AUC), AUC norm value
25 | CCCCC(CC)CNC(=N)NC(=N)NCCCCCCNC(=N)NC(=N)NCC(CC)CCCC (centres unmarked) [Alexidine HCl] | 1.2

Test system: YCC11
Assay: as above
Assay type: cell-based, human
Details: YCC11 cells (SEM subtype); 72 hours
Procedure: as §1, §2

Row | SMILES | Average Area Under the Viability Curve (AUC), AUC norm value
26 | CCCCC(CC)CNC(=N)NC(=N)NCCCCCCNC(=N)NC(=N)NCC(CC)CCCC (centres unmarked) [Alexidine HCl] | −1.347

Test system: YCC2
Assay: as above
Assay type: cell-based, human
Details: YCC2 cells; 72 hours
Procedure: as §1, §2

Row | SMILES | Average Area Under the Viability Curve (AUC), AUC norm value
27 | CCCCC(CC)CNC(=N)NC(=N)NCCCCCCNC(=N)NC(=N)NCC(CC)CCCC (centres unmarked) [Alexidine HCl] | −0.00823

Test system: YCC3
Assay: as above
Assay type: cell-based, human
Details: YCC3 cells; 72 hours
Procedure: as §1, §2

Row | SMILES | Average Area Under the Viability Curve (AUC), AUC norm value
28 | CCCCC(CC)CNC(=N)NC(=N)NCCCCCCNC(=N)NC(=N)NCC(CC)CCCC (centres unmarked) [Alexidine HCl] | 0.8273

Test system: FU97
Assay: as above
Assay type: cell-based, human
Set-up: Average Area Under the Viability Curve (AUC), AUC norm value: scale not given here
Details: FU97 cells; 72 hours
Procedure: Cells cultured for cell-based drug assay were inoculated into a 96-well white optical plate (Corning) at 5×10^3 cells per well. After 24 hours after inoculation, a 2.5 MJT (primary screen) or a half-log 12-serial diluent (secondary screen) of the pharmacological compound contained in DMSO is added to the cells with a robot using a BioMek FXp liquid processor (Beckman) to add to the cells at 50 mM. The final drug concentration in the 5 ns range and the DMSO specification control (0.5%) were calculated. The cells were then further incubated at 37° C. in a 5% CO2 incubator for 72 hours prior to measuring cell viability using the extra-GLO assay kit (Promega). The luminescent properties were measured after 15 min incubation at room temperature using a plate stacker equipped with a plate stacker. The normalized viability for the DMSO-based control was measured to generate a cell line-specific 12-point dose-response curve for each pharmacological compound, and then the area under the curve (AUC) was calculated using a trapezoidal method.

Row | SMILES | Average Area Under the Viability Curve (AUC), AUC norm value
29 | CCCCC(CC)CNC(=N)NC(=N)NCCCCCCNC(=N)NC(=N)NCC(CC)CCCC (centres unmarked) [Alexidine HCl] | −0.9535
